Results: US9649271B2, “Hair thickening compositions and methods of use” (The Procter & Gamble Company, priority 2013, dated 2017)

What was measured:
[1] = Measurement of average thickness increase of single hair fibers
Protocol: The fibers are then removed and allowed to equilibrate and dry overnight. • 4) The next day, the fibers are imaged and measured for a final reading. For each experiment, untreated control and product treatment controls are ran, and at least 5 fibers are measured per treatment. • 5) In order to measure increase in thickness as a function of treatment, the […]. The average thickness increase is reported in the Table above, with measurements reported in micrometers. Viscosity Test Method

[2] = Viscosity test method (cone and plate viscometer/rheometer); format: physicochemical; details: hair care composition (Example 1 formula) with 0.15% resorcinol of the given type, 1.89% Sepigel
Text: The viscosity of the hair care composition may be determined by a cone and plate viscometer/rheometer which measures the viscous drag resulting from the sample material contained in the gap between a rotating cone and a stationary plate. The geometry of the cone and plate may be such that the entire sample is subjected to a uniform shear rate.

| Viscosity [2] [cps] | Compound | average thickness increase compared to Resorcinol Type 2 and Type 3 (in words) ([1]; Example 1 formula, different types of resorcinol substituted) | Average Thickness Increase ([1]; Example 1 formula with 0.15% resorcinol of the given type, 1.89% Sepigel, fibers treated 10 minutes, dried overnight, at least 5 fibers per treatment) [μm] |
| --- | --- | --- | --- |
|  | Oc1ccc(Cl)c(O)c1 [Resorcinol 1, 4-Chlororesorcinol] | measurable average thickness increase |  |
| 15958 | Oc1cccc(O)c1 [Resorcinol 3, 1,3-Dihydroxybenzene] |  | 3.5 |
